The subject of assay [1] is autoimmune antibodies in sera from patients suffering from rheumatoid arthritis. Nature of the assay: ELISA of coupled peptides with RA sera. Type of assay: binding, human. As to conditions: n = 134 RA sera, positive = OD450 of 0.2 after deduction of blank; for RA sera: number of positive sera: sera diluted 200 times. Here is the method: (§1) Detection by Means of ELISA
Via an N-oxysuccinimide surface the peptides were covalently coupled to the wells of 96-well microtitre plates (Costar amide binding plates) in an amount of 1 ? g/well. Coupling took place for 16 hours at 4EC and pH 9.0. The plates were blocked for 1 hour with 2% bovine serum albumin. The sera were diluted 200 times in a diluent (0.3% BSA, 350 mM NaCl, 10 mM Tris-HCl pH 7.6, 1% vol./vol. Triton X-100, 0.5% w./vol. Na-deoxycholate, 0.1% SDS) supplemented with 10% normal rabbit serum, and incubated for one hour at room temperature. After washing the plates (3 times with PBS containing 0.05 by vol. of Tween® 20), 100 ? l of antihuman IgG conjugated with peroxidase (Dako P214), 1000 times diluted in dilution buffer, was added to the wells. After incubation for 1 hour at room temperature, the plates were washed 3 times with PBS/Tween®, and bound antibodies were detected with tetramethyl benzidine as a substrate. After 10 minutes the reaction was stopped by adding 100 ? l of 2 M sulphuric acid per well. Readout occurred at 450 nm. Sera having an OD450 of 0.2, after deduction of the blank for the respective serum (a well without a coupled peptide), were considered to be positive. […]
In general terms: An ELISA detects its analyte on a solid surface through an enzyme-linked reagent.

For assay [2], the system named is antibodies in control sera from patients suffering from rheumatic diseases other than RA. Nature of the assay: ELISA of coupled peptides with control sera. Type of assay: binding, human. As to conditions: for control sera (%) positive / control sera: number of positive sera: n = 154, rheumatic diseases other than RA. Here is the method: as §1
(§2) Via an N-oxysuccinimide surface the peptides were covalently coupled to the wells of 96-well microtitre plates (Costar amide binding plates) in an amount of 1 ? g/well. Coupling took place for 16 hours at 4EC and pH 9.0. The plates were blocked for 1 hour with 2% bovine serum albumin. The sera were diluted 200 times in a diluent (0.3% BSA, 350 mM NaCl, 10 mM Tris-HCl pH 7.6, 1% vol./vol. Triton X-100, 0.5% w./vol. Na-deoxycholate, 0.1% SDS) supplemented with 10% normal rabbit serum, and incubated for one hour at room temperature. After washing the plates (3 times with PBS containing 0.05 by vol. of Tween® 20), 100 ? l of antihuman IgG conjugated with peroxidase (Dako P214), 1000 times diluted in dilution buffer, was added to the wells. After incubation for 1 hour at room temperature, the plates were washed 3 times with PBS/Tween®, and bound antibodies were detected with tetramethyl benzidine as a substrate. After 10 minutes the reaction was stopped by adding 100 ? l of 2 M sulphuric acid per well. Readout occurred at 450 nm. Sera having an OD450 of 0.2, after deduction of the blank for the respective serum (a well without a coupled peptide), were considered to be positive.
In total, 288 sera from patients suffering from rheumatoid diseases were used, 132 of which were from patients suffering from rheumatoid arthritis.

In assay [3] the test system is antibodies in SLE (systemic lupus erythematosus) sera. Nature of the assay: ELISA of coupled peptides with SLE sera. Type of assay: binding, human. Particulars: n = 50. As for the experimental part:
as §1, §2

For assay [4], the system named is antibodies in SSC (systemic scleroderma) sera. Nature of the assay: ELISA of coupled peptides with SSC sera. Type of assay: binding, human. Particulars: n = 50. Here is the method: as §1, §2
Assay [5] relates to antibodies in pSS (primary Sjögren's syndrome) sera. In words: ELISA of coupled peptides with pSS sera. Type of assay: binding, human. Particulars: n = 50. As for the experimental part:
as §1, §2

Assay [6] concerns antibodies in PM/DM (polymyositis/dermatomyositis) sera. In words: ELISA of coupled peptides with PM/DM sera. It counts as binding, human. As to conditions: n = 50. As for the experimental part: as §1, §2
For assay [7], the system named is antibodies in sera from patients suffering from various infectious diseases. Nature of the assay: ELISA with sera from patients suffering from various infectious diseases. As to conditions: 308 tested sera. It counts as binding, human.
The subject of assay [8] is recombinant monoclonal antibody described by applicants. Nature of the assay: Reactivity of peptides with the recombinant monoclonal antibody. It counts as binding.

Experimental findings from patent US8772448B2, “Peptides immunoreactive with autoantibodies from patients suffering from rheumatoid arthritis” (Stichting Voor de Technische Wetenschappen, priority 1996, dated 2014) are described below.

Where no end group is shown, it is not given here. [ ]: non-standard residue; d: D form. Cit = NC(=O)NCCC[C@H](N)C(=O)O

As to “SHQESTXGRSRGRSGRSGS (SHQEST[Cit]GRSRGRSGRSGS-NH2; N-terminus assumed; SMILES C[C@@H](O)[C@H](NC(=O)[C@H](CO)NC(=O)[C@H](CCC(=O)O)NC(=O)[C@H](CCC(N)=O)NC(=O)[C@H](Cc1c[nH]cn1)NC(=O)[C@@H](N)CO)C(=O)N[C@@H](CCCNC(N)=O)C(=O)NCC(=O)N[C@@H](CCCNC(=N)N)C(=O)N[C@@H](CO)C(=O)N[C@@H](CCCNC(=N)N)C(=O)NCC(=O)N[C@@H](CCCNC(=N)N)C(=O)N[C@@H](CO)C(=O)NCC(=O)N[C@@H](CCCNC(=N)N)C(=O)N[C@@H](CO)C(=O)NCC(=O)N[C@@H](CO)C(N)=O) [cfc1]”, in assay [1], the “RA sera (%) positive” value is recorded as 36% and the “RA sera: number of positive sera” value worked out at 49. For the same sequence, the “RA sera (%) positive” value in assay [1] (listed as Formula II) is recorded as “about 36%”. For the same sequence, in assay [2], the “control sera (%) positive” value is given as 0.6% and the “control sera: number of positive sera” value is reported as 1. In assay [2] (other autoimmune diseases and healthy individuals), the “percentage of false positives” value is “less than 2%”. In addition, in assay [3], the “SLE (%) positive” value is reported as 2% and the “SLE: number of positive sera” value was found to be 1. The “SSC: number of positive sera” value in assay [4] amounted to 0. For the same sequence, the “pSS: number of positive sera” value in assay [5] is 0. Further, in assay [6], the “PM/DM: number of positive sera” value is 0. For the same sequence, in assay [7], the “infectious disease sera: number positive” value is 9 and the “specificity in respect of infectious disease sera” value worked out at 97%. The “reactivity with the recombinant monoclonal antibody” value in assay [8] is “reactive”.

Consider “SHQESTXGRSRGXSGRSGS (SHQEST[Cit]GRSRG[Cit]SGRSGS-NH2; N-terminus assumed; SMILES C[C@@H](O)[C@H](NC(=O)[C@H](CO)NC(=O)[C@H](CCC(=O)O)NC(=O)[C@H](CCC(N)=O)NC(=O)[C@H](Cc1c[nH]cn1)NC(=O)[C@@H](N)CO)C(=O)N[C@@H](CCCNC(N)=O)C(=O)NCC(=O)N[C@@H](CCCNC(=N)N)C(=O)N[C@@H](CO)C(=O)N[C@@H](CCCNC(=N)N)C(=O)NCC(=O)N[C@@H](CCCNC(N)=O)C(=O)N[C@@H](CO)C(=O)NCC(=O)N[C@@H](CCCNC(=N)N)C(=O)N[C@@H](CO)C(=O)NCC(=O)N[C@@H](CO)C(N)=O) [cfc8]”, for which, in assay [1], the “RA sera (%) positive” value was determined as 41% and the “RA sera: number of positive sera” value stood at 55. Further, in assay [2], the “control sera (%) positive” value turned out to be 0.6% and the “control sera: number of positive sera” value was determined as 1. In addition, the “SLE: number of positive sera” value in assay [3] was 0. For the same sequence, the “SSC: number of positive sera” value in assay [4] is reported as 0. Besides, in assay [5], the “pSS (%) positive” value is 2% and the “pSS: number of positive sera” value came out at 1. Moreover, in assay [6], the “PM/DM (%) positive” value was determined as 2% and the “PM/DM: number of positive sera” value is recorded as 1.

Turning to “SHQESTXGRSXGRSGRSGS (SHQEST[Cit]GRS[Cit]GRSGRSGS-NH2; N-terminus assumed; SMILES C[C@@H](O)[C@H](NC(=O)[C@H](CO)NC(=O)[C@H](CCC(=O)O)NC(=O)[C@H](CCC(N)=O)NC(=O)[C@H](Cc1c[nH]cn1)NC(=O)[C@@H](N)CO)C(=O)N[C@@H](CCCNC(N)=O)C(=O)NCC(=O)N[C@@H](CCCNC(=N)N)C(=O)N[C@@H](CO)C(=O)N[C@@H](CCCNC(N)=O)C(=O)NCC(=O)N[C@@H](CCCNC(=N)N)C(=O)N[C@@H](CO)C(=O)NCC(=O)N[C@@H](CCCNC(=N)N)C(=O)N[C@@H](CO)C(=O)NCC(=O)N[C@@H](CO)C(N)=O) [cfc7]”, in assay [1], the “RA sera (%) positive” value is 45% and the “RA sera: number of positive sera” value is given as 60. In addition, in assay [2], the “control sera (%) positive” value amounted to 0.6% and the “control sera: number of positive sera” value was 1. Also, in assay [3], the “SLE: number of positive sera” value came out at 0. Also, the “SSC: number of positive sera” value in assay [4] worked out at 0. In addition, in assay [5], the “pSS (%) positive” value is 2% and the “pSS: number of positive sera” value was determined as 1. In assay [6], the “PM/DM (%) positive” value is listed as 2% and the “PM/DM: number of positive sera” value is recorded as 1.

As to “SHQESTXGXSRGRSGRSGS (SHQEST[Cit]G[Cit]SRGRSGRSGS-NH2; N-terminus assumed; SMILES C[C@@H](O)[C@H](NC(=O)[C@H](CO)NC(=O)[C@H](CCC(=O)O)NC(=O)[C@H](CCC(N)=O)NC(=O)[C@H](Cc1c[nH]cn1)NC(=O)[C@@H](N)CO)C(=O)N[C@@H](CCCNC(N)=O)C(=O)NCC(=O)N[C@@H](CCCNC(N)=O)C(=O)N[C@@H](CO)C(=O)N[C@@H](CCCNC(=N)N)C(=O)NCC(=O)N[C@@H](CCCNC(=N)N)C(=O)N[C@@H](CO)C(=O)NCC(=O)N[C@@H](CCCNC(=N)N)C(=O)N[C@@H](CO)C(=O)NCC(=O)N[C@@H](CO)C(N)=O) [cfc6]”, in assay [1], the “RA sera (%) positive” value was determined as 48% and the “RA sera: number of positive sera” value is recorded as 65. Besides, in assay [2], the “control sera (%) positive” value turned out to be 0.6% and the “control sera: number of positive sera” value stood at 1. Also, in assay [3], the “SLE: number of positive sera” value came out at 0. The “SSC: number of positive sera” value in assay [4] is reported as 0. Also, in assay [5], the “pSS (%) positive” value worked out at 4% and the “pSS: number of positive sera” value was determined as 2. In assay [6], the “PM/DM (%) positive” value turned out to be 2% and the “PM/DM: number of positive sera” value is 1.
